Several values for one entry are separate records, joined by “and”; a condition that tells them apart may be missing. Identical values can stand only once.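 Assay format: 96-well plates, 48-hour exposure. GI50 is the concentration that inhibits growth by half. TGI: concentration producing complete growth inhibition.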
System: UACC-257 melanoma
Assay: NCI tumour cell line growth inhibition, 48 h

CC(=O)c1c2c(cc3c1CC1(C3)Cc3cc4c(c(C(=O)O)c3C1)CCC4)CCC2 (centres undefined) and CCCN1CCC=C(c2ccc(Nc3nc(Nc4ccccc4C(N)=O)c4cc[nH]c4n3)c(C)c2)C1 cannot be ordered by TGI: greater than 100 µM for the first, greater than 25 µM for the second.

Compared with C/C(=N/O)c1ccc(Nc2cc(-n3ccnc3)c3ccccc3n2)cc1, O=C(/C=C/c1cccc2ccccc12)Nc1ncc(Cc2ccccc2)s1 is higher in TGI: 9.35 µM for the first, greater than 100 µM for the second.

Cc1ccc(/C=N/NS(=O)(=O)c2ccccc2)c(C)c1 and Cc1noc(/N=C2\C=C(Nc3onc(C)c3C)C(=O)c3ccccc32)c1C cannot be ordered by TGI: greater than 100 µM for the first, greater than 100 µM for the second.

NNC(=O)C(O)C(O)C(=O)NN (centres undefined) and C#CCOCn1cnc2ncnc(N)c21 cannot be ordered by TGI: greater than 100 µM for the first, greater than 100 µM for the second.

C/C(=N/O)c1ccc(Nc2cc(-n3ccnc3)c3ccccc3n2)cc1 and O=C(/C=C/c1cccc2ccccc12)Nc1ncc(Cc2ccccc2)s1 are within 1.5-fold of each other in GI50: 3.77 µM for the first, 4.97 µM for the second.

In the case of CCCN1CCC=C(c2ccc(Nc3nc(Nc4ccccc4C(N)=O)c4cc[nH]c4n3)c(C)c2)C1, the GI50 is reported as 2.65 µM.

System: OVCAR-5 ovarian
Assay: NCI tumour cell line growth inhibition, 48 h

First: O=S1(=O)c2ccccc2N=C(c2ccccc2Cl)CC1c1ccc(F)cc1 (centres undefined)
Second: O=C(/C=C/c1cccc2ccccc12)Nc1ncc(Cc2ccccc2)s1
The TGI of the first is lower: 30.7 µM for the first, greater than 100 µM for the second.

CC(/C=N/N=C(N)N)=N\N=C(N)N and NNC(=O)C(O)C(O)C(=O)NN (centres undefined) cannot be ordered by TGI: 347 µM for the first, greater than 100 µM for the second.

CC1=CC(=O)NP(=O)(C23CC4CC(CC(C4)C2)C3)N1 (centres undefined) and O=C1CCC(=O)c2sccc2N1 cannot be ordered by TGI: greater than 100 µM for the first, greater than 100 µM for the second.

O=c1[nH]cc(C(F)(C(F)(F)F)C(F)(F)F)c(=O)[nH]1 and O=C1C=Cc2ncccc2C1=O cannot be ordered by TGI: greater than 100 µM for the first, greater than 58 µM for the second.

COc1ccc2c(c1)c1c3n2CCNN=C3CCC1 and COc1ccc(C)cc1C1CCC(=O)O1 (centres undefined) cannot be ordered by TGI: greater than 100 µM for the first, greater than 100 µM for the second.

CC(C)N1C(C)[C@@H](c2ccccc2)O[P@]1(=O)CC1=CCCCC1 (some centres undefined) and COC(=O)/C(=N\Nc1nnc(C)n1N)C(C#N)c1ccccc1 (centres undefined) cannot be ordered by TGI: greater than 100 µM for the first, greater than 100 µM for the second.

COC(=O)C(=O)C(C(=O)C(=O)Nc1cc(Cl)c(Cl)cc1Cl)c1nc2ccc([N+](=O)[O-])cc2[nH]c1=O (centres undefined) and N#CC(C(=O)CCCC(=O)Nc1ccc(Cl)cc1Cl)c1ccc(Cl)cc1 (centres undefined) cannot be ordered by TGI: greater than 100 µM for the first, greater than 100 µM for the second.

COc1ccc(NC(=O)C2C(=O)N(c3ccc(OC)cc3)C(=O)/C2=N\NC(N)=O)cc1 (centres undefined) and Cc1ccc2nc(NC(=O)C(=O)CC(=O)c3cccc4ccccc34)sc2c1 cannot be ordered by TGI: greater than 100 µM for the first, greater than 100 µM for the second.

First: C/C(=N\NS(=O)(=O)c1ccc([N+](=O)[O-])cc1)c1ccc[n+]([O-])n1
Second: Cc1ccc(/C=N/NS(=O)(=O)c2ccccc2)c(C)c1
The TGI of the first is lower: 6.1 µM for the first, greater than 100 µM for the second.

S=c1c2ccccc2c(=S)n2n1CC=CC2 and C/C(=N/O)c1ccc(Nc2cc(-n3ccnc3)c3ccccc3n2)cc1 cannot be ordered by TGI: greater than 100 µM for the first, greater than 100 µM for the second.

Going from CC(C)(C)Sc1nnc(SC(C)(C)C)c2c(=O)[nH]nc(SC(C)(C)C)c12 to Cc1noc(/N=C2\C=C(Nc3onc(C)c3C)C(=O)c3ccccc32)c1C, the TGI rises from 16.9 µM to greater than 100 µM.

CCCCNC1=C(C(=O)OCC)/C(=N/NC(=O)c2ccccc2O)CO1 and CCCN1CCC=C(c2ccc(Nc3nc(Nc4ccccc4C(N)=O)c4cc[nH]c4n3)c(C)c2)C1 cannot be ordered by TGI: greater than 100 µM for the first, greater than 25 µM for the second.

C/C(CC(=O)Nc1cccc([N+](=O)[O-])c1)=N\NC(=O)CC#N and CCc1cc(Cc2ccc(C)c(NC(=O)C(=O)C3C(=O)NC(=O)NC3=O)c2CC)cc(C)c1NC(=O)C(=O)C1C(=O)NC(=O)NC1=O cannot be ordered by TGI: greater than 100 µM for the first, greater than 100 µM for the second.

First: Cc1cc2nc3c4ccc(Br)cc4n(CCN(C)C)c3nc2cc1C
Second: CC(=O)c1c2c(cc3c1CC1(C3)Cc3cc4c(c(C(=O)O)c3C1)CCC4)CCC2 (centres undefined)
The TGI of the first is lower: 5.88 µM for the first, greater than 100 µM for the second.

C#CCOCn1cnc2ncnc(N)c21 gave a TGI greater than 100 µM.

With CC(/C=N/N=C(N)N)=N\N=C(N)N the GI50 was 41 µM and 19.4 µM.

Going from Cc1cc2nc3c4ccc(Br)cc4n(CCN(C)C)c3nc2cc1C to CCCN1CCC=C(c2ccc(Nc3nc(Nc4ccccc4C(N)=O)c4cc[nH]c4n3)c(C)c2)C1, the GI50 rises from 1.99 µM to 4.01 µM (2-fold).

Compared with C/C(=N/O)c1ccc(Nc2cc(-n3ccnc3)c3ccccc3n2)cc1, O=C(/C=C/c1cccc2ccccc12)Nc1ncc(Cc2ccccc2)s1 is 44-fold lower in GI50: 86.6 µM for the first, 1.98 µM for the second.

System: DLD-1 colon
Assay: NCI tumour cell line growth inhibition, 48 h

First: O=S1(=O)c2ccccc2N=C(c2ccccc2Cl)CC1c1ccc(F)cc1 (centres undefined)
Second: Cn1nc(-c2ccccc2)c(C(=O)/C=C/c2ccc(Cl)cc2)c(N2CCCC2)c1=O
The TGI of the first is 2.6-fold higher: 28.6 µM for the first, 10.8 µM for the second.

CC(/C=N/N=C(N)N)=N\N=C(N)N and CC(=O)OC(=O)O/C=C\CCl cannot be ordered by TGI: 2500 µM for the first, greater than 100 µM for the second.

CC1=CC(=O)NP(=O)(C23CC4CC(CC(C4)C2)C3)N1 (centres undefined) and O=C1CCC(=O)c2sccc2N1 cannot be ordered by TGI: greater than 100 µM for the first, greater than 100 µM for the second.

Going from O=c1[nH]cc(C(F)(C(F)(F)F)C(F)(F)F)c(=O)[nH]1 to O=C1C=Cc2ncccc2C1=O, the TGI falls from greater than 100 µM to 34.2 µM.

COc1ccc2c(c1)c1c3n2CCNN=C3CCC1 and COc1ccc(C)cc1C1CCC(=O)O1 (centres undefined) cannot be ordered by TGI: greater than 100 µM for the first, greater than 100 µM for the second.

Going from CC(C)N1C(C)[C@@H](c2ccccc2)O[P@]1(=O)CC1=CCCCC1 (some centres undefined) to O=CCCCC(Sc1ccccc1)Sc1ccccc1, the TGI falls from greater than 100 µM to 31.6 µM.

Compared with C/C(=N\NS(=O)(=O)c1ccc([N+](=O)[O-])cc1)c1ccc[n+]([O-])n1, Cc1ccc(/C=N/NS(=O)(=O)c2ccccc2)c(C)c1 is higher in TGI: 20.3 µM for the first, greater than 100 µM for the second.

S=c1c2ccccc2c(=S)n2n1CC=CC2 and Cc1ccc2nc(NC(=O)C(=O)CC(=O)c3cccc4ccccc34)sc2c1 cannot be ordered by TGI: greater than 100 µM for the first, greater than 100 µM for the second.

Going from CC(C)(C)Sc1nnc(SC(C)(C)C)c2c(=O)[nH]nc(SC(C)(C)C)c12 to Cc1noc(/N=C2\C=C(Nc3onc(C)c3C)C(=O)c3ccccc32)c1C, the TGI rises from 22.8 µM to greater than 100 µM.

CCCCNC1=C(C(=O)OCC)/C(=N/NC(=O)c2ccccc2O)CO1 and COC(=O)/C(=N\Nc1nnc(C)n1N)C(C#N)c1ccccc1 (centres undefined) cannot be ordered by TGI: greater than 100 µM for the first, greater than 100 µM for the second.

N#CC(C(=O)CCCC(=O)Nc1ccc(Cl)cc1Cl)c1ccc(Cl)cc1 (centres undefined) and C/C(CC(=O)Nc1cccc([N+](=O)[O-])c1)=N\NC(=O)CC#N cannot be ordered by TGI: greater than 100 µM for the first, greater than 100 µM for the second.

CCCCCCCCCCCCCCCCCC(=O)NCC(COP(=O)(O)O)OCC (centres undefined) and CCc1cc(Cc2ccc(C)c(NC(=O)C(=O)C3C(=O)NC(=O)NC3=O)c2CC)cc(C)c1NC(=O)C(=O)C1C(=O)NC(=O)NC1=O cannot be ordered by TGI: greater than 100 µM for the first, greater than 100 µM for the second.

[CH3][Sn]1([CH3])[O]CC(COc2cc(Cl)c(Cl)cc2Cl)[O]1 (centres undefined) and CC(=O)c1c2c(cc3c1CC1(C3)Cc3cc4c(c(C(=O)O)c3C1)CCC4)CCC2 (centres undefined) cannot be ordered by TGI: greater than 100 µM for the first, greater than 100 µM for the second.

In the case of C#CCOCn1cnc2ncnc(N)c21, the TGI is reported as greater than 100 µM.

[CH3][Sn]1([CH3])[O]CC(COc2cc(Cl)c(Cl)cc2Cl)[O]1 (centres undefined) gave a GI50 of 54.5 µM.

System: UACC-62 melanoma
Assay: NCI tumour cell line growth inhibition, 48 h

O=S1(=O)c2ccccc2N=C(c2ccccc2Cl)CC1c1ccc(F)cc1 (centres undefined) and O=CCCCC(Sc1ccccc1)Sc1ccccc1 are within 1.5-fold of each other in TGI: 32 µM for the first, 24.5 µM for the second.

CC(/C=N/N=C(N)N)=N\N=C(N)N and COC(=O)/C(=N\Nc1nnc(C)n1N)C(C#N)c1ccccc1 (centres undefined) cannot be ordered by TGI: 236 µM for the first, greater than 100 µM for the second.

CC1=CC(=O)NP(=O)(C23CC4CC(CC(C4)C2)C3)N1 (centres undefined) and CC(C)N1C(C)[C@@H](c2ccccc2)O[P@]1(=O)CC1=CCCCC1 (some centres undefined) cannot be ordered by TGI: greater than 100 µM for the first, greater than 100 µM for the second.

Compared with O=c1[nH]cc(C(F)(C(F)(F)F)C(F)(F)F)c(=O)[nH]1, CC(C)(C)Sc1nnc(SC(C)(C)C)c2c(=O)[nH]nc(SC(C)(C)C)c12 is lower in TGI: greater than 100 µM for the first, 22.2 µM for the second.

Going from COc1ccc2c(c1)c1c3n2CCNN=C3CCC1 to COc1ccc(NC(=O)C2C(=O)N(c3ccc(OC)cc3)C(=O)/C2=N\NC(N)=O)cc1 (centres undefined), the TGI falls from greater than 100 µM to 46.7 µM.

COC(=O)C(=O)C(C(=O)C(=O)Nc1cc(Cl)c(Cl)cc1Cl)c1nc2ccc([N+](=O)[O-])cc2[nH]c1=O (centres undefined) and N#CC(C(=O)CCCC(=O)Nc1ccc(Cl)cc1Cl)c1ccc(Cl)cc1 (centres undefined) cannot be ordered by TGI: greater than 100 µM for the first, greater than 100 µM for the second.

Compared with C/C(=N\NS(=O)(=O)c1ccc([N+](=O)[O-])cc1)c1ccc[n+]([O-])n1, CCCCNC1=C(C(=O)OCC)/C(=N/NC(=O)c2ccccc2O)CO1 is higher in TGI: 2.59 µM for the first, greater than 100 µM for the second.

Work on S=c1c2ccccc2c(=S)n2n1CC=CC2 yielded a TGI greater than 100 µM.

CC(/C=N/N=C(N)N)=N\N=C(N)N gave a GI50 greater than 55.3 µM.

— PubChem BioAssay (NCI)
